Earlier results as cited in patent US20160375061A1, “COMPOSITION INVOLVED IN REGULATING ENERGY CYCLE, INFLAMMATION AND INSULIN RESISTANCE DYSFUNCTIONS, AND USE THEREOF PARTICULARLY IN CARDIOMETABOLIC DISEASES” (INTERNATIONAL NUTRITION RESEARCH COMPANY, priority 2013, published 2016).

Settings: mutation of the gene transporter OCT1; normal daily doses 1 to 3 g/day

concentrations of metformin (saturation): 30 ± 19 ng/mL
Compound: CN(C)C(=N)N=C(N)N [metformin]
